Legend:
pNF45 (T388) [1] = assay: Effect of ATM and DNA-PK inhibitors on NF45 phosphorylation by β-Lapachone in MIA PaCa-2 cells (Western blot); type: cell-based, human; conditions: then β-Lapachone 4 μM 8 hrs in presence of inhibitor
Description: (§1) Immunoprecipitation and Western Blot Analysis: Cell lysate was used for immunoprecipitation using anti-NF90 antibody (#612154, BD Biosciences) or IgG as negative control. Samples then were separated into two equal potions: one blotted with anti-pNF45(T388)(#438) and another for anti-NF45 (K-22) (sc-133817, Santa Cruz Biotechnology). Other antibodies used in this study are pATM(S1981)(# 200-301-400, Rockland), DNA-PKcs (MA-370-P0, Thermo Scientific), ATM(2C1) (GTX70103, GeneTex), DNA-PK (S2506) (ab18192, Abcam), DNA-PK (T2609) (ab18356, Abcam), pCHK2(T68) (#2661, CST), b-actin (#5441, Sigma), g-H2AX (A300-081A, Bethyl).
(§2) β-Lapachone-induced phosphorylation of NF45 is ATM- and DNA-PK-dependent: MIA PaCa-2 cells were pretreated with or without ATM inhibitor KU55933 (10 μM), or DNA-PK inhibitor NU7026 (20 μM), for 1 hr and then treated with β-Lapachone (4 μM) (“Agent A”) for 8 hrs in the presence of inhibitors. Western blot analysis was performed using specific antibodies.

pNF45 (T388) [2] = assay: Western blot analysis for pNF45 (T388) in MIA PaCa-2 cells; type: cell-based, human; conditions: for time course of NF45 phosphorylation / induction of NF45 phosphorylation, pNF45 (T388): MIA Paca-2 cells; for time course of NF45 phosphorylation: up to 24 hrs; for induction of NF45 phosphorylation, pNF45 (T388): various times
Description: Cell culture and chemicals: MIA PaCa-2 cells were maintained in DMEM medium supplemented with 10% FBS. β-Lapachone and (S)-1′-(3-(4-(tert-butyl)phenoxy)-2-hydroxypropyl)-2H-spiro[naphtho[1,2-b][1,4]oxathiine-3,4′-piperidine]-5,6-dione were synthesized by ArQule, Inc. Doxorubicin, cisplatin, camptohethcin and NU7026 (DNA-PK inhibitor) were purchased from Sigma. KU55933 (ATM inhibitor) was purchased from EMD Chemicals.
Antibody generation: Anti-pNF45 (T388) antibody was generated by Covance (Norwood, Mass.). Briefly, a peptide corresponding to amino acids 383 to 390 (EESME-T-QE) (SEQ ID NO: 2) of NF45 was phosphorylated at threonine 388 in vitro and then conjugated with KHL. Polyclonal antibody was produced from rabbit and passed through affinity column with unphosphorylated peptide and then purified through the column with phosphorylated peptide. Two batches of antibody were obtained: #438 and #439. All the experiments were carried out using #438. Monoclonal antibody are generated by utilizing SEQ ID NO:2 and the hybridoma method known in the art and described herein.
as §1
Knockdown of NF45: Cells were transfected with NF45 On-target plus SMART pool (L-017599-00-0005, Thermo Fisher) or On-Target plus Control siRNA (200 nM, #D-001810-0X, Thermo Fisher) using Oligofectamine (#12252-011, Invitrogen). Cells were used for further examination after 48 hr post transfection.
Threonine Phosphorylation of pNF45 in MIA PaCa-2 Cells is Responsive to β-Lapachone: MIA PaCa-2 cells were treated with or without β-Lapachone (4 μM) (“Agent A”) for 8 hrs and cell lysate was subjected to western blot analysis for the detection of pNF45(T388). […] Samples were then separated into two portions: one for detection of pNF45 (T388) and another for detection of total NF45. C. Cells were transfected with NF45 siRNA or control siRNA and then treated with or without β-Lapachone (4 μM) for 8 hrs.
Time- and concentration-dependent pNF45 (T388) in response to β-Lapachone in MIA PaCa-2 cells: MIA PaCa-2 cells were treated with β-Lapachone (4 μM) (“Agent A”) for various times (A), or for 2 hrs at various concentrations of β-Lapachone (B). Western blot analysis was performed for the detection of pNF45 (T388) and NF45. […] Early induction of pNF45 (T388) was observed within 1 hr and reached peak level between 4 to 8 hrs.
Effect of DNA damage agents on phosphorylation of NF45: To determine whether other DNA damage agents are able to regulate NF45, we treated MIA Paca-2 cells with or without doxorubicin (1 μM), cisplatin (10 μM) or camptothecin (10 μM) for various times. pNF45 (T388) was examined by western blot analysis.

[3] = cited from earlier work
DNA-PK = assay: Western blot, activation of DNA-PK in β-Lapachone treated cells; type: cell-based, human; conditions: MIA PaCa-2 cells, coincides with induction of pNF45 (T388)
Description: as §1, §2

ATM = assay: Western blot, activation of ATM in β-Lapachone treated cells; type: cell-based, human; conditions: MIA PaCa-2 cells, coincides with induction of pNF45 (T388)
Description: as §1, §2

[4] = test system: human ovarian cancer, human prostate cancer, human breast cancer, human multiple myeloma; conditions: single agent, xenotransplant mouse models; cited from earlier work
[5] = test system: Human breast and ovary carcinoma; conditions: cited from earlier work
DNA topoisomerase II = conditions: cited from earlier work
pNF45 (T388) [6] = assay: Immunofluorescence staining of pNF45 (T388) in MIA PaCa-2 cells; type: cell-based, human
Method: Immunofluorescent Staining: Cells were seeded in 8-well chamber slides and treated with or without β-Lapachone for various time periods and then fixed with 4% paraformaldhyde. pNF45 was detected using anti-pNF45(T388) antibody, and NF45 using anti-NF45 (K-22) antibody. Slides were mounted using Vectashield Mounting Medium with DAPI (#H-1200, Vector Laboratories) and images were obtained using Zeiss fluorescence microscope.
Immunofluorescence staining pNF45 (T388) in response to β-Lapachone: MIA PaCa-2 cells were plated in 8-well chamber slides and treated with β-Lapachone (4 μM) (“Agent A”) for various times. Cells were fixed and stained for either pNF45 (A) or NF45 (B).

[7] = test system: cancer cells from a variety of tissues; normal cells from these tissues; conditions: cited from earlier work
CHK2 = CHK2 phosphorylation in treated cells; type: cell-based
Description: as §1

[8] = test system: human prostate and promyelocytic leukemia cancer cell lines; conditions: cited from earlier work
g-H2AX = g-H2AX elevation in treated cells; type: cell-based
Description: as §1

## O=c1cc(-c2cccc3c2Sc2ccccc2S3)oc(N2CCOCC2)c1 [KU55933]
pNF45 (T388) [1]; inhibitor 10 μM pretreated 1 hr
  effect of ATM inhibitor on β-Lapachone-induced phosphorylation of NF45: phosphorylation of NF45 induced by β-Lapachone is ATM and DNA-PK dependent

## O=c1cc(N2CCOCC2)oc2c1ccc1ccccc12 [NU7026]
pNF45 (T388) [1]; inhibitor 20 μM pretreated 1 hr
  effect of DNA-PK inhibitor on β-Lapachone-induced phosphorylation of NF45: phosphorylation of NF45 induced by β-Lapachone is ATM and DNA-PK dependent

## CC[C@@]1(O)C(=O)OCc2c1cc1n(c2=O)Cc2cc3ccccc3nc2-1 [camptothecin]
pNF45 (T388) [2]; 10 μM
  time course of NF45 phosphorylation: steadily increased up to 24 hrs
  induction of NF45 phosphorylation, pNF45 (T388): induced NF45 phosphorylation

## N.N.[Cl][Pt][Cl] [cisplatin]
pNF45 (T388) [2]; 10 μM
  induction of NF45 phosphorylation, pNF45 (T388): not cisplatin induced NF45 phosphorylation

## COc1cccc2c1C(=O)c1c(O)c3c(c(O)c1C2=O)C[C@@](O)(C(=O)CO)C[C@@H]3O[C@H]1C[C@H](N)[C@H](O)[C@H](C)O1 [doxorubicin]
pNF45 (T388) [2]; 1 μM
  time course of NF45 phosphorylation: steadily increased up to 24 hrs
  induction of NF45 phosphorylation, pNF45 (T388): induced NF45 phosphorylation

## CC1(C)CCC2=C(O1)c1ccccc1C(=O)C2=O [β-Lapachone, 3,4-dihydro-2,2-dimethyl-2H-naphtho[1,2-b]pyran-5,6-dione]
[3]
  water solubility: non-water soluble
DNA-PK
  activation of DNA-PK: activation
ATM
  activation of ATM: activation
pNF45 (T388) [2]; MIA PaCa-2 cells, 4 μM
  time of early induction of pNF45 (T388): ≤ 1 hr
pNF45 (T388) [2]; MIA PaCa-2 cells, 4 μM for various times, or 2 hrs at various concentrations
  time and concentration dependence of pNF45 (T388) induction: time- and concentration-dependent manner
pNF45 (T388) [2]; MIA PaCa-2 cells, 4 μM, 8 hrs
  induction of pNF45 (T388): induced pNF45 (T388)
[4]
  number of tumors, tumor size, survival time: decrease the number of tumors, reduce tumor size, or increase the survival time, or a combination of these
[5]
  cytotoxic effect: showed sensitivity of the cytotoxic effect of β-Lapachone without signs of apoptosis
DNA topoisomerase II
  inhibition of DNA topoisomerase II: inhibits DNA topoisomerase II
pNF45 (T388) [6]; MIA PaCa-2 cells, 4 μM
  cellular location of induced pNF45 (T388): primarily located in nuclei
pNF45 (T388) [6]; MIA PaCa-2 cells, 4 μM, various times
  time of induction of pNF45 (T388), immunofluorescence: ≤ 2 hrs
pNF45 (T388) [6]; β-Lapachone treated cells, pNF45 (T388) antibody
  pNF45 (T388) levels, immunofluorescence staining: significant increase
[7]
  cell death in cancer cells versus normal cells: induces cell death in cancer cells from a variety of tissues without causing death of normal cells from these tissues
CHK2
  CHK2 phosphorylation: CHK2 phosphorylation
[8]
  induction of cell death: induces cell death with characteristics of apoptosis
g-H2AX
  g-H2AX level: g-H2AX elevation

— patent US20120021432A1, “Phosphorylated NF45 Biomarkers, Antibodies And Methods Of Using Same” (ArQule, Inc., priority 2010, published 2012)
